# Laboratory results published in patent US11214578B2, “Urea/carbamates FAAH MAGL or dual FAAH/MAGL inhibitors and uses thereof” (Northeastern University, priority 2014, dated 2022).
# Like-named read-outs stand apart in the source and are kept apart here.
# Key:
# Format in all cases: biochemical
# Human FAAH (MBPΔTMhFAAH) = target: T1, Human FAAH (MBPΔTMhFAAH) (Homo sapiens, UniProt O00519); experiment: Fluorescent assay protocol for hFAAH; conditions: human FAAH (MBP fusion, ΔTM), procedure as for rFAAH
# T1 construct: made in house; host or cells: E. coli (pMALcE4 vector)
# T1 sequence (O00519 30-579 limits assumed): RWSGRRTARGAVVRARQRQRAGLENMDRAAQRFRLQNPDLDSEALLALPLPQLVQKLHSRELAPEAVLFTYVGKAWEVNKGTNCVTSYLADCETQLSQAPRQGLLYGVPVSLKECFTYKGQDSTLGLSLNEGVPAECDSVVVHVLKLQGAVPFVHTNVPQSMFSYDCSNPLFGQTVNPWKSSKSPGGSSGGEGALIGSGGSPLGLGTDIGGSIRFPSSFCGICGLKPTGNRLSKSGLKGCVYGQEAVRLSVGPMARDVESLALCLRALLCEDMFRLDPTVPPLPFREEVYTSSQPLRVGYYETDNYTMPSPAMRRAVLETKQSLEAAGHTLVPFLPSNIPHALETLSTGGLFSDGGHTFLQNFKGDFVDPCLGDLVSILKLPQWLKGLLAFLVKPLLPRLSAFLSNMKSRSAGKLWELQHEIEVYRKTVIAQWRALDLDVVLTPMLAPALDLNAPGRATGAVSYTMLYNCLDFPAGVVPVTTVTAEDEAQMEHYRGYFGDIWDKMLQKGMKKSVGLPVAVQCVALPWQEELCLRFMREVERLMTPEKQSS
# Procedure, shortened: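 MBP-fused ΔTM human FAAH from E. coli, pre-incubated 15 min at 25 °C with compound in 50 mM HEPES, 1 mM EDTA, 0.1% BSA, pH 7.4 (DMSO below 8%). Substrate AAMCA 20 μM (2×Km); fluorescence (ex 360/em 460) at 3 h gave % inhibition vs uninhibited control, triplicate, IC50 fitted.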
# ΔTM rat FAAH = target: T2, ΔTM rat FAAH (Rattus norvegicus, UniProt P97612); experiment: Fluorescent assay protocol for ΔTM rat FAAH (AAMCA substrate); conditions: 15 min preincubation, read-out: IC50 rFAAH
# T2 construct: Preparation of Transmembrane Domain-Deleted Rat FAAH (ΔTM rFAAH); made in house; host or cells: E. coli
# T2 sequence (P97612 30-579 limits assumed): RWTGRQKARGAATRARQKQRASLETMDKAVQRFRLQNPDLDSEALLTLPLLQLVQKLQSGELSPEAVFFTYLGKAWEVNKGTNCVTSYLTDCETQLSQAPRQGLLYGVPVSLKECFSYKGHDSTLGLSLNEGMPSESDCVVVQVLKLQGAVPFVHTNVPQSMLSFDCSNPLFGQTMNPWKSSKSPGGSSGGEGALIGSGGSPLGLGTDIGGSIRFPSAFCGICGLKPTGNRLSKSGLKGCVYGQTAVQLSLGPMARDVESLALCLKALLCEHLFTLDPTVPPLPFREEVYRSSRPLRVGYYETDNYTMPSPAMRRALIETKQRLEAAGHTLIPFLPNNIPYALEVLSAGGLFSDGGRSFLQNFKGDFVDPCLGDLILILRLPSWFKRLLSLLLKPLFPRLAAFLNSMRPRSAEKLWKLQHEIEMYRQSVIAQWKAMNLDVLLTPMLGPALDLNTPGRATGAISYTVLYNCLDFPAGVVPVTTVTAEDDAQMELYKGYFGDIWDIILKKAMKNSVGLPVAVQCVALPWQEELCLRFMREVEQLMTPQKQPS
# Procedure, shortened: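 ΔTM rat FAAH (15 μg) was pre-incubated 15 min at 25° C with compound (screening at 1, 10 and 100 μM), then reacted with the fluorigenic substrate AAMCA. Percent inhibition came from fluorescence at 3 h (linear kinetics) relative to no-inhibitor controls, in triplicate.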
# Rat MAGL (rMAGL) = target: T3, Rat MAGL (rMAGL) (Rattus norvegicus, UniProt Q8R431); experiment: Fluorescent assay protocol for rMAGL
# T3 construct: made in house; host or cells: E. coli
# T3 sequence (Q8R431 1-303): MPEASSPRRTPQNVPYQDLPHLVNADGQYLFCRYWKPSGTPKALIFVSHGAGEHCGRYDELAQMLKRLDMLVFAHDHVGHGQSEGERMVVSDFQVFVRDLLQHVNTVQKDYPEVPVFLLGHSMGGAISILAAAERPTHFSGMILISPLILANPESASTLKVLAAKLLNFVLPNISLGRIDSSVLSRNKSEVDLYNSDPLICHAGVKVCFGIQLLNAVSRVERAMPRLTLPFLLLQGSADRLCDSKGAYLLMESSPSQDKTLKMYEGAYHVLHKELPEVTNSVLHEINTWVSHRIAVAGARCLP
# Procedure, shortened: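 Rat MAGL run as for the human enzyme: AHMMCE substrate hydrolysis to fluorescent coumarin followed at 25° C. for 120 min, read every 15 min at 360/460 nm.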
# Human MAGL (hMAGL) = target: T4, Human MAGL (hMAGL) (Homo sapiens, UniProt Q99685); experiment: Fluorescent assay protocol for hMAGL (AHMMCE substrate)
# T4 construct: hexahistidine; made in house; host or cells: E. coli
# T4 sequence (Q99685 1-303): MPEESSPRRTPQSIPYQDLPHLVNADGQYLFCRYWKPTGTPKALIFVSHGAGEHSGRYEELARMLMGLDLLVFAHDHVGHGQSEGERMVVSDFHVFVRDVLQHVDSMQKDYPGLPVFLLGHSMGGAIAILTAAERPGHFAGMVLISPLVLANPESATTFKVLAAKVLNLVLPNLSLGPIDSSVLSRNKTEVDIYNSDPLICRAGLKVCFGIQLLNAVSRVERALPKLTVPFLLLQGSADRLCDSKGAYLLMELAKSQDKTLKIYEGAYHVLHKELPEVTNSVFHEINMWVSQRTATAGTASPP
# Procedure, shortened: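 Hydrolysis of AHMMCE by human MAGL was monitored at 25°C for 120 min, with fluorescence at 360/460 nm recorded every 15 min and converted to 4-methylcoumarin using external standards. IC50 values were derived from triplicate wells at each inhibitor concentration.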
# [1] = recombinant rat MAGL, procedure as for hMAGL, read-out: IC50 rMAGL
# [2] = recombinant human MAGL, AHMMCE substrate, 15 min preincubation, read-out: IC50 hMAGL
Structure (SMILES),IC50 (Human FAAH (MBPΔTMhFAAH)) [nM],IC50 (ΔTM rat FAAH) [nM],IC50 (Rat MAGL (rMAGL); [1]) [nM],IC50 (Human MAGL (hMAGL); [2]) [nM],IC50 (Rat MAGL (rMAGL)) [nM],IC50 (Human MAGL (hMAGL)) [nM]
"O=C(Oc1ccc(Cl)cc1Cl)N1CC(OCc2ccc(Cl)cc2)C1 [Example 79, 2,4-Dichlorophenyl 3-(4-chlorobenzyloxy)azetidine-1-carboxylate]",10 to 100,10 to 100,–,–,110 to 1000,110 to 1000
"O=C(Nc1ccccc1)N1CC(OCc2ccc(Cl)cc2)C1 [Example 81, 3-(4-Chlorobenzyloxy)-N-phenylazetidine-1-carboxamide]",110 to 1000,110 to 1000,> 1000,> 1000,–,–
"O=C(Nc1cccnc1)N1CC(OCc2ccc(Br)cc2)C1 [Example 82, 3-(4-Bromobenzyloxy)-N-(pyridin-3-yl)azetidine-1-carboxamide]",110 to 1000,110 to 1000,> 1000,> 1000,–,–
"O=C(N1CC(OCc2ccc(Br)cc2)C1)n1cnc2ccccc21 [Example 87, (1H-Benzo[d]imidazol-1-yl)(3-(4-Bromobenzyloxy)azetidin-1-yl)methanone]",10 to 100,10 to 100,10 to 100,10 to 100,–,–
O=C(N1CCCCC1)N1CC(OCc2ccc(Br)cc2)C1 [Example 88],10 to 100,10 to 100,10 to 100,10 to 100,–,–
"O=C(N1CC(N2CCC(c3ccccc3)CC2)C1)n1cccn1 [Example 89, (3-(4-Phenylpiperidin-1-yl)azetidin-1-yl)(1H-pyrazol-1-yl)methanone]",10 to 100,10 to 100,10 to 100,10 to 100,–,–
O=C(N1CC(N2CCC(c3ccccc3)CC2)C1)n1cncn1 [Example 90],10 to 100,10 to 100,10 to 100,10 to 100,–,–
O=C(N1CC(Sc2ccc(Br)cc2)C1)n1cncn1 [Example 91],10 to 100,10 to 100,10 to 100,10 to 100,–,–
"NC(=O)c1cccc(-c2cccc(NC(=O)N3C[C@@H]4C[C@H]3CN4Cc3ccc4ccccc4n3)c2)c1 [Example 92, (1S,4S)—N-(3′-carbamoyl-[1,1′-biphenyl]-3-yl)-5-(quinolin-2-ylmethyl)-2,5-diazabicyclo[2.2.1]heptane-2-carboxamide]",> 1000,> 1000,> 1000,> 1000,–,–
"N#Cc1cccc(-c2cccc(NC(=O)N3C[C@@H]4C[C@H]3CN4Cc3ccc4ccccc4n3)c2)c1 [Example 93, (1S,4S)—N-(3′-cyano-[1,1′-biphenyl]-3-yl)-5-(quinolin-2-ylmethyl)-2,5-diazabicyclo[2.2.1]heptane-2-carboxamide]",> 1000,> 1000,> 1000,> 1000,–,–
"N#Cc1cccc(-c2cccc(NC(=O)N3C[C@@H]4C[C@H]3CN4Cc3cccc(-c4ccccc4)c3)c2)c1 [Example 94, (1S,4S)-5-([1,1′-biphenyl]-3-ylmethyl)-N-(3′-cyano-[1,1′-biphenyl]-3-yl)-2,5-diazabicyclo[2.2.1]heptane-2-carboxamide]",110 to 1000,110 to 1000,> 1000,> 1000,–,–
"O=C(N1C[C@@H]2C[C@H]1CN2c1ccccn1)n1cnc(-c2ccccc2)c1 [Example 96, (4-phenyl-1H-imidazol-1-yl)((1S,4S)-5-(pyridin-2-yl)-2,5-diazabicyclo[2.2.1]heptan-2-yl)methanone]",10 to 100,10 to 100,> 1000,> 1000,–,–
"O=C(N1C[C@@H]2C[C@H]1CN2c1cccc(F)c1)n1cnc(-c2ccccc2)c1 [Example 97, ((1 S,4S)-5-(3-fluorophenyl)-2,5-diazabicyclo[2.2.1]heptan-2-yl)(4-phenyl-1H-imidazol-1-yl)methanone]",110 to 1000,110 to 1000,> 1000,> 1000,–,–
"O=C(N1C[C@@H]2C[C@H]1CN2Cc1cccc(-c2ccccc2)c1)n1cnc(-c2ccccc2)c1 [Example 99, ((1S,4S)-5-([1,1′-biphenyl]-3-ylmethyl)-2,5-diazabicyclo[2.2.1]heptan-2-yl)(4-phenyl-1H-imidazol-1-yl)methanone]",110 to 1000,10 to 100,> 1000,> 1000,–,–

# Continued, in another order:
IC50 (Human FAAH (MBPΔTMhFAAH)) [nM],IC50 (ΔTM rat FAAH) [nM],IC50 (Rat MAGL (rMAGL); [1]) [nM],IC50 (Human MAGL (hMAGL); [2]) [nM],Structure (SMILES),IC50 (Rat MAGL (rMAGL)) [nM],IC50 (Human MAGL (hMAGL)) [nM]
10 to 100,10 to 100,> 1000,> 1000,"COc1cccc(OC(=O)N2CC(OCc3ccc(Br)cc3)C2)c1 [Example 78, 3-Methoxyphenyl 3-(4-Bromobenzyloxy)azetidine-1-carboxylate]",–,–
10 to 100,10 to 100,> 1000,> 1000,"O=C(Oc1cccc(-c2cccnc2)c1)N1CC(OCc2ccc(Cl)cc2)C1 [Example 80, 3-(Pyridin-3-yl)phenyl 3-(4-chlorobenzyloxy)azetidine-1-carboxylate]",–,–
10 to 100,10 to 100,> 1000,> 1000,"O=C(N1CC(N2CCC(c3ccccc3)CC2)C1)n1cnc2ccccc21 [Example 83, (1H-Benzo[d]imidazol-1-yl)(3-(4-phenylpiperidin-1-yl)azetidin-1-yl)methanone]",–,–
10 to 100,10 to 100,> 1000,> 1000,"O=C(N1CC(N2CCC(Cc3ccccc3)CC2)C1)n1cnc(-c2ccccc2)c1 [Example 84, (3-(4-Benzylpiperidine)azetidin-1-yl)(4-phenyl[1H]imizadol-1-yl)methanone]",–,–
10 to 100,10 to 100,> 1000,> 1000,"O=C(N1CC(N2CCC(c3ccccc3)CC2)C1)n1cnc(-c2ccccc2)c1 [Example 85, (4-Phenyl-1H-imidazol-1-yl)(3-(4-phenylpiperidin-1-yl)azetidin-1-yl)methanone]",–,–
10 to 100,10 to 100,> 1000,> 1000,"O=C(N1CC(OCc2ccc(Br)cc2)C1)n1cnc(-c2ccccc2)c1 [Example 86, (3-(4-Bromobenzyloxy)azetidin-1-yl)(4-phenyl-1H-imidazol-1-yl)methanone]",–,–
